Molecules are shown by their SMILES.

In general, viability refers to a read-out of living cells in per cent, often relative to untreated cells.

One data set is described as follows: in vitro. Conditions: human, hela cells, % viability.
In the case of `Cc1ccc(C(N)=O)c(OCC(=O)N2c3ccccc3CCC2C)c1` (centres unmarked) [CBK295633], the viability at 28.5 h, 10 µM amounted to 93.8%.

For `S=C1NCN(Cc2ccc3c(c2)OCO3)CN1` [CBK267899], the viability at 28.5 h, 10 µM is 87.1%. Same read-out and setting: next, `CC(Cc1ccccn1)NC(=O)Cn1ccnc1` (centres unmarked) [CBK282069]: 104%; `CC(C)(C)OC(=O)N1CCC[C@]2(CCC(=O)N2)[C@H]1c1ccc(F)cc1` [CBK283462]: 86.1%; `CCc1noc(C)c1C(=O)NC(C)c1cc2ccccc2o1` (centres unmarked) [CBK247065]: 87.1%. On the same count and under the same terms, in the case of `Cc1ccc(Nc2cncc(-c3ccc(O)cc3)n2)cc1Cl` [CBK107802] it was 99.9%. Turning to `CCN(CCO)c1ccc(Nc2nc(-c3c(OC)cccc3OC)cn3ccnc23)cc1` [CBK066267], the viability at 28.5 h, 10 µM came to 89.9%. On the same count and under the same terms, next, `COc1ccc(Sc2cc3n(c(=O)n2)CCc2cc(OC)c(OC)cc2-3)cc1` [CBK291186]: 81.9%. Still for that read-out and setting: next, `CC(C)C(=O)N1CCC(n2nc(-c3cccs3)ccc2=O)CC1` [CBK284181]: 86.6%; `CCN1CCCC1CNS(=O)(=O)c1cc(C(N)=O)ccc1OC` (centres unmarked) [CBK267815]: 115%. On the same count and under the same terms, next, `Cc1nc(C)c(-c2csc(Nc3ncccn3)n2)s1` [CBK263297B]: 87.4%; `CC(=O)Nc1cccc(-c2cnc(N)c(N3CCN(CCN(C)C)CC3)n2)c1` [CBK063472]: 91.1%. For `Cc1cc(C(=O)NCC[S+](C)[O-])c(-n2cccc2)s1` (centres unmarked) [CBK283305], the viability at 28.5 h, 10 µM stood at 96.7%. Consider `FC(F)(F)c1cc(-c2cn3ccnc3c(NC3CCOCC3)n2)cc(C(F)(F)F)c1` [CBK037278], for which the viability at 28.5 h, 10 µM was 107%. For the compound `CCCCC(=O)N(C)c1c(C)nc2ccc(C(=O)NCc3cccs3)cn12` [CBK147073], the viability at 28.5 h, 10 µM is 103%. Same read-out and setting: in the case of `Ic1ccc(NCc2cn3ccccc3n2)cc1` [CBK058563] it was 91.4%. As for `Cn1ccnc1C1(O)CCN(C(=O)Nc2ccccc2Cl)CC1` [CBK282278], the viability at 28.5 h, 10 µM came to 89.3%. Still for that read-out and setting: in the case of `CC(Oc1cccc(C#N)c1)C(=O)N1CCSCC1` (centres unmarked) [CBK305748] it was 97%. With `Cc1nc(OCC(=O)O)c(C#N)c2c1COC(C)(C)C2` [CBK286810], the viability at 28.5 h, 10 µM is 89.4%. On the same count and under the same terms, in the case of `Cc1ccc(OCC(=O)Nc2ccc3c(c2)C(=O)Nc2ccccc2O3)cc1` [CBK287660] it was 88.2%.

Regarding `COCc1cc(C[C@@H]2C[C@H](NS(C)(=O)=O)C2(C)C)no1` [CBK289252], the viability at 28.5 h, 10 µM amounted to 92.5%. The same measure, in the same setting: next, `CCc1nnc(Sc2ccc(C=O)cc2[N+](=O)[O-])[nH]1` [CBK268876]: 95.4%; `COc1ccc2c3c(cc(Cl)cc13)CC(N)C2` (centres unmarked) [CBK016450C]: 84.2%; `Cc1ccc(Cl)c(OC(C)C(=O)N(CCCO)Cc2ccncc2)c1` (centres unmarked) [CBK305432]: 109%. Still for that read-out and setting: next, `N#Cc1ccc(Oc2ccc(C(=O)C(=O)c3ccccc3)cc2)cc1C#N` [CBK260959]: 100%; `O=C(C[n+]1cccc(C(=O)N/N=C/c2ccc(Br)cc2)c1)c1ccccc1` [CBK262063B]: 90.1%.

`COc1cc2c(cc1C(C)c1ccc3c(c1)OCO3)OCO2` (centres unmarked) [CBK200107]: the viability at 28.5 h, 10 µM came to 97.4%. As to `NC(=O)C1(Cc2cccc(-c3cccs3)c2)CCN(C(=O)CCc2ccccc2)CC1` [CBK285782], the viability at 28.5 h, 10 µM was determined as 91.3%. Still for that read-out and setting: next, `CC(Cn1cccn1)NC(=O)N1CCN(Cc2ccc(F)cc2)CC1` (centres unmarked) [CBK306948]: 88.9%; `O=C(NCCc1ccccc1)c1cc(-c2ccccc2Cl)[nH]n1` [CBK288113]: 105%; `CCc1n[nH]c(C(=O)NCC(c2ccc(F)cc2)N2CCCC2)c1C` (centres unmarked) [CBK282630]: 85.8%. Take `C[C@@H](Nc1cncc(-c2ccc3c(c2)OCO3)n1)c1ccccc1` [CBK065954]: the viability at 28.5 h, 10 µM is 108%. Same read-out and setting: in the case of `COc1ccc(-c2cnc(NS(C)(=O)=O)c(C(=O)NCc3ccco3)c2)cc1` [CBK076539] it was 94.9%; in that of `COc1ccc(CC(=O)c2ccc(O)cc2O)cc1` [CBK012203], 88.2%; in that of `COc1ccc(C)c(NC(=O)NCCc2c[nH]cn2)c1` [CBK269992], 88.8%. The same measure, in the same setting: next, `O=C(Nc1c(F)cc(F)cc1OC1CCNCC1)c1ccccn1` [CBK050274T]: 94.8%; `N#Cc1cccc(C(=O)NCCc2cn3c(n2)CCCC3)c1` [CBK305046]: 93.9%; `COc1ccc(C)cc1NC(=O)Nc1nc(C)cs1` [CBK006565]: 83.3%. On the same count and under the same terms, in the case of `O=C(Nc1sc2c(c1C(=O)O)CCC2)c1cccs1` [CBK152437] it was 95.2%.

For the compound `CC(C)(O)C#Cc1ccc(C(=O)NCCc2ccc(S(N)(=O)=O)cc2)cc1` [CBK263110], the viability at 28.5 h, 10 µM turned out to be 98.2%. Same read-out and setting: in the case of `O=C(O)c1cccc(NC(=O)c2cnc(-c3cccc(C(F)(F)F)c3)c(-c3cccc(CO)c3)c2)c1` [CBK037565] it was 96%. Turning to `O=C(NCc1ccc2c(c1)OCO2)c1ccc2[nH]ccc2c1` [CBK161750], the viability at 28.5 h, 10 µM turned out to be 106%. For `O=C(CSc1nc2ccccc2c(=O)[nH]1)Nc1ccccc1O` [CBK269738], the viability at 28.5 h, 10 µM was 104%. Still for that read-out and setting: next, `Cc1ccc(S(=O)(=O)N2CCN(C(=O)C3CCCCC3C(=O)O)CC2)cc1C` (centres unmarked) [CBK286936]: 97%; `COc1ccc(C2(C(=O)NCCc3ccc(O)cc3)CC2)cc1` [CBK149833]: 101%. As to `COc1ccc(CC(C(=O)Nc2ccc3nc[nH]c(=O)c3c2)c2ccccc2)cc1` (centres unmarked) [CBK285863], the viability at 28.5 h, 10 µM came to 94.3%. Same read-out and setting: in the case of `CC(C(=O)NCCc1cn(C)c2ccc(Cl)cc12)N1CCOCC1` (centres unmarked) [CBK282263] it was 94.6%. Turning to `O=C(NCCc1cccs1)Nc1ccc(F)c(F)c1F` [CBK044543], the viability at 28.5 h, 10 µM is 96.1%. Take `Ic1ccc2ncnc(NCCN3CCOCC3)c2c1` [CBK265655]: the viability at 28.5 h, 10 µM came out at 108%.

On to `Cc1cccc(=O)n1CCCNc1cc(C2CCOC2)ncn1` (centres unmarked) [CBK306992], for which the viability at 28.5 h, 10 µM came to 84.4%.

As for `CC(=O)N1CCC[C@@H](N)[C@@H]1c1ccccc1F` [CBK281562], the viability at 28.5 h, 10 µM came out at 111%. On to `CC(=O)Nc1ccc(-c2ccc(C(=O)NCc3cccnc3)cn2)cc1` [CBK158842], for which the viability at 28.5 h, 10 µM stood at 96.9%. Same read-out and setting: in the case of `CN(C)Cc1cc(-c2ccccc2F)nn1CCNC(=O)C1CCC1` [CBK283471] it was 93.1%; in that of `Cc1nn(C(C)C)c(C)c1CN1CCN(C2CCCCC2)C(=O)C1` [CBK282562], 109%; in that of `CN(C)c1nc(N2CCN(c3ccc(F)cc3)CC2)cc(C(F)(F)F)n1` [CBK007432], 91.1%. Still for that read-out and setting: next, `Cc1nn(C)c(C)c1OCC(=O)Nc1sc2c(c1C#N)CCC2` [CBK306374]: 79.4%; `CC(=O)Nc1ccc(Nc2cc(-c3ccc(Cl)cc3)ncn2)cc1` [CBK090720]: 93.6%; `C[C@H](c1ccccc1)n1c(=O)[nH]c2ncc(-c3ccc(C(N)=O)cc3)nc21` [CBK064377]: 111%. As to `CC(C)(C)c1ccnc(N[C@H]2CO[C@H]3[C@@H]2OC[C@@H]3NC(=O)NCc2ccccc2)n1` [CBK289522], the viability at 28.5 h, 10 µM came out at 87.3%. On the same count and under the same terms, next, `Nc1cccc(-c2ccc(NCc3cc(F)c(F)c(F)c3)nc2)c1` [CBK036985]: 97.2%; `CCOc1ccc(CN2CCN(CC(=O)Nc3cc(C)on3)CC2)cc1` [CBK306116]: 115%; `Cc1nc(-c2nnc(SCc3ccc(C(F)(F)F)cc3)o2)cs1` [CBK067715]: 95.1%. For `Cn1c(COc2ccccc2Cl)nnc1SCC(=O)N1c2ccccc2Sc2ccccc21` [CBK266001], the viability at 28.5 h, 10 µM worked out at 96.5%. Take `COc1ccc(/C=C/C(=O)Nc2cc(S(N)(=O)=O)ccc2C)cc1` [CBK262651]: the viability at 28.5 h, 10 µM was 102%. Regarding `O=C(N/N=C/c1ccc(O)cc1O)c1[nH]c2ccc([N+](=O)[O-])cc2c1-c1ccccc1` [CBK263328], the viability at 28.5 h, 10 µM came to 69.7%. Still for that read-out and setting: next, `Brc1cccc(CSc2nnc(COc3ccccc3)n2Cc2ccccc2)c1` [CBK268250]: 113%; `O=C(CSc1n[nH]c(=O)[nH]c1=O)N/N=C/c1cccs1` [CBK263508]: 98.9%. Still for that read-out and setting: next, `Cc1nn2c(-c3cccc(NC(=O)CN4CCOCC4)c3)nnc2c2ccccc12` [CBK268383]: 84.3%; `O=c1[nH]c2n[nH]c(=O)n2c2c(-c3ccccc3)c[nH]c12` [CBK288054]: 84.2%; `S=C(NCCn1cc(Br)cn1)NCc1ccco1` [CBK266914]: 95.5%. Still for that read-out and setting: in the case of `CC(=O)Nc1nnn(CCOc2nonc2C)n1` [CBK027320] it was 90.2%. In the case of `Cc1cc(C)n(C2CCN(Cc3ccc4ccccc4n3)CC2)n1` [CBK281622], the viability at 28.5 h, 10 µM amounted to 87.9%. Same read-out and setting: next, `CN(C)Cc1ncccc1OCCO` [CBK001411C]: 111%; `Cc1nc(C)n(CC(=O)NCCCc2ccc(Cl)cc2)n1` [CBK281559]: 90.9%. As for `O=C(Nc1ccc(F)cc1)c1[nH]c2ccccc2c1NS(=O)(=O)c1ccc(Cl)c(Cl)c1Cl` [CBK050091], the viability at 28.5 h, 10 µM was 86.7%.

In the case of `O=C(NCCn1nc(-c2cccs2)ccc1=O)c1cccs1` [CBK283836], the viability at 28.5 h, 10 µM stood at 77%. Regarding `CC(C)(C)C1=CC2=NC3(CCCCCCCCCCC3)[C@@H]3C[C@@H](O)[C@@H](O)[C@@H]3N2O1` [CBK303254], the viability at 28.5 h, 10 µM was 113%. As to `COc1ccc(CCN2CCCCC2Cn2cncn2)cc1` (centres unmarked) [CBK305095], the viability at 28.5 h, 10 µM was found to be 108%.

Take `CCOC(=O)N1CCN(CC(O)COc2cc(C)c(Cl)c(C)c2)CC1` (centres unmarked) [CBK033833C]: the viability at 28.5 h, 10 µM stood at 88.9%.

Still in this data set, the particulars now being: human, hela cells, % viability, bulk resorufin, single well.
`CCOC(=O)C1(c2ccccc2)CCN(C(=O)COc2ccccc2OC)CC1` [CBK132183]: the viability at 28.5 h, 10 µM was determined as 87.1%.

These data come from PMC12040169 (PLOS Biology, 2025).
